# In patent publication US20130096098A1, “Light Insensitive Silver(i) Cyanoximates As Antimicrobial Agents For Indwelling Medical Devices” (MISSOURI STATE UNIVERSITY, priority 2011, published 2013):
# Like-named read-outs stand apart in the source and are kept apart here.
# Key:
# [1] = test system: inoculated microorganisms; assay: Antibacterial tests in solid state: soaked dried filter paper disks on agar plates; assay type: cell-based; settings: deposited on filter papers from DMF 10 mg/mL, 20 μL; 37° C., 24 h
# Source text: (§1) Antimicrobial Activity Studies. Bacterial Strains and Growing Conditions. The strains of bacteria were obtained from Polish Collection of Microorganisms (PCM) of the Institute of Immunology and Experimental Therapy of Polish Academy of Sciences and were used throughout this study. Both Gram-negative and Gram-positive bacteria, as well as yeasts, commonly isolated from patients suffering implant-related infections, were chosen for experiments. They included Escherichia coli PCM 1144 (ATCC #10536), Klebsiella pneumoniae PCM 57, Proteus sp. PCM 542 (ATCC #13315), Pseudomonas aeruginosa PCM 2563 (ATCC #15442), Streptococcus mutans PCM 2502, Staphylococcus aureus PCM 2602 (ATCC #6538), Enterococcus hirae PCM 2559 (ATCC #10541), Mycobacterium fortuitum PCM 672, Candida albicans PCM 2566 (ATCC #10231). In addition, several multidrug-resistant bacterial strains isolated from patients with nosocomial infections K. pneumoniae 244, P. aeruginosa 2314, AMA, Enterococcus faecium VRE (vancomycin-resistant), Streptococcus pneumoniae PCI, S. aureus MRSA (methicillin-resistant), S. aureus MRSC (coagulase-negative methicillin-resistant), were also included in the in vitro testing. Bacteria were cultivated on sugar broth at 37° C. for 24 h in aerobic conditions, and prior to use in tests, cells were diluted with the same medium to obtain suspensions of about 2×10^5 cfu/mL.
# Antibacterial Tests in Solid State: Soaked Dried Paper Disks and Pellets. Solutions (or suspensions if the compound was not completely solubilized) of studied Ag(I) cyanoximates in DMF at 10 mg/mL concentration were prepared and 20 μL of it was placed on filter paper discs (diameter 12 mm). These discs were dried for ˜2 h in the dark prior to testing where each filter was placed on agar plates with inoculated microorganisms, which were then incubated at 37° C. for 24 h. Thereafter, microorganisms' growth inhibition zone (if present) was measured (in mm).
# [2] = test system: Mycobacterium fortuitum; assay: Antibacterial tests in solid state: pressed AgL pellets on agar plates; assay type: cell-based
# Source text: as §1
# (§2) Also, Ag(I) cyanoximates were pressed into 12 mm in diameter pellets using a Carver 20 tons hydraulic press. The method of testing pellets was similar to the one described above. Solid pellets of AgL were carefully placed on agar plates with inoculated bacteria. The exposition time was 24 h at 37° C., after which inhibition zones were measured and results were documented by digital photography.
# [3] = test system: Pseudomonas aeruginosa; assay: as above; assay type: cell-based
# Source text: as §1, §2
# [4] = UV-light stability studies, low-pressure Hg lamp 254 nm; assay type: physicochemical
# Experimental: Photophysical Measurements. Light sensitivity and stability of synthesized Ag(I) cyanoximates was studied at 296 K using a low-pressure Hg lamp with >85% output at λmax=254 nm where the intensity of light was measured with a UVX radiometer (UK). After 4 min warm-up time, this lamp generated a steady flux of UV-radiation that was equal to the dose of 10.13 J/cm^2 within 30 min. Prior to these investigations, complexes were thoroughly dried under high vacuum (<10^−4 Torr) and ground into a powder using an agate mortar. This made it easy to apply these compounds to paper, adhesive tape, or cardboard. Samples of complex were spread on white cardboard with an exposed circular area (via a mask) of ˜3 cm. The radiation source was positioned 1 cm from the sample. A pristine white silver chloride prepared in the dark was used as a control substance to access the light stability of silver(I) cyanoximates. Digital pictures of irradiated samples were taken every 30 min using a stationary digital camera (Kodak DX7630; 6.1 Mpx), and native images were cropped to square shape without any contrast or brightness editing using Samsung Digimax Viewer 2.0 software.
# [5] = test system: bacterial strains; assay: Antibacterial tests in solutions, microplate Alamar Blue assay (MIC); assay type: cell-based; settings: stock in DMSO, 37° C., 48 h, tested infection agents
# Source text: Antimicrobial Activity Studies. Bacterial Strains and Growing Conditions. The strains of bacteria were obtained from Polish Collection of Microorganisms (PCM) of the Institute of Immunology and Experimental Therapy of Polish Academy of Sciences and were used throughout this study. Both Gram-negative and Gram-positive bacteria, as well as yeasts, commonly isolated from patients suffering implant-related infections, were chosen for experiments. They included Escherichia coli PCM 1144 (ATCC #10536), Klebsiella pneumoniae PCM 57, Proteus sp. PCM 542 (ATCC #13315), Pseudomonas aeruginosa PCM 2563 (ATCC #15442), Streptococcus mutans PCM 2502, Staphylococcus aureus PCM 2602 (ATCC #6538), Enterococcus hirae PCM 2559 (ATCC #10541), Mycobacterium fortuitum PCM 672, Candida albicans PCM 2566 (ATCC #10231). […]
# Antibacterial Tests in Solutions. The antibacterial activities of synthesized Ag(I) cyanoximates were determined against bacterial strains by the microplate Alamar Blue assay. […] The fluorescence was measured using Victor^2 apparatus (Wallac, Perkin-Elmer), and the experiment was repeated three times. […] Means and standard error values were determined using the Microsoft Excel.
# [6] = 12 mm pressed pellets, 24 h at 37° C., FIG. 10
Compound,effect on bacterial growth on solid media (inhibition zones) [1],"growth inhibition zone [2, 6]","growth inhibition zone [3, 6]",stability toward short wavelength UV-radiation [4],other results
"CCOC(=O)C(C#N)=N[O-].[Ag+] [Ag(ECO), Silver(I) α-Oximido-(ethylacetoxy)acetonitrile]",exhibit antimicrobial activity in the solid state,clear inhibition zones,clear inhibition zones,,
"Cn1c(C(C#N)=N[O-])nc2ccccc21.[Ag+] [Ag(BIMCO), Silver(I) α-Oximido-(2-[N-methyl]benzoimidazolyl)acetonitrile]",exhibit antimicrobial activity in the solid state,,,,
Silver(I) α-Oximido-(acetamide)acetonitrile [Ag(ACO)],,,,resistance,
"N#CC(=N[O-])c1nc2ccccc2o1.[Ag+] [Ag(BOCO), 2-(Oximido)-2-benzoxazoleacetonitrile Silver(I)]",exhibit antimicrobial activity in the solid state,clear inhibition zones,clear inhibition zones,,
"[Cl][Ag] [AgC1, silver chloride, reference compound]",,,,completely darken,
"N#CC(=N[O-])C(=O)c1ccccc1.[Ag+] [Ag(BCO), Silver(I) α-Oximido-(2-benzoyl)acetonitrile]",exhibit antimicrobial activity in the solid state,,,,
Silver(I) Nitrosodicyanomethanide [Ag(CCO)],exhibit antimicrobial activity in the solid state,clear inhibition zones,clear inhibition zones,,"stability toward short wavelength UV-radiation ([4]; solid powders, 254 nm, 296 K, FIG. 8): resistance"
Silver(I) α-Oximido-(2-pivaloyl)acetonitrile [Ag(PiCO)],exhibit antimicrobial activity in the solid state,,,,"minimal inhibitory concentration (MIC), ranking [5]: lowest MIC value"
"CN(C)C(=O)C(C#N)=N[O-].[Ag+] [Ag(DCO), Silver(I) α-Oximido-([N,N-dimethylamine]acetamide)acetonitrile]",exhibit antimicrobial activity in the solid state,,,resistance,"minimal inhibitory concentration (MIC), ranking [5]: lowest MIC value; growth inhibition zone [2]: clear inhibition zones; growth inhibition zone [3]: clear inhibition zones"
